Assay results taken from EPA's ToxValDB 9.5 (doi:10.2903/j.efsa.2009.299r).
≈ marks a conversion by molar mass, not a printed value.

Key:
[1] = tested on: Apis mellifera; conditions: acute, mortality
[2] = tested on: Folsomia candida; conditions: chronic/long-term; duration: 28 days
[3] = tested on: Colinus virginianus; conditions: for LC50: diet
[4] = tested on: Rattus norvegicus; conditions: for LD50: acute, mortality
[5] = tested on: Daphnia magna
[6] = tested on: Pimephales promelas; conditions: chronic/long-term; duration: 33 days; growth
[7] = tested on: Oncorhynchus mykiss; conditions: acute; duration: 96 hours; mortality
[8] = tested on: Oryctolagus sp.
[9] = tested on: Tagia sp.
[10] = tested on: Bibionidae; conditions: chronic/long-term; duration: 28 days; other
[11] = tested on: Mus musculus; conditions: chronic; duration: 78 weeks; oral; diet; histopathology: neoplastic
[12] = tested on: Canidae; conditions: chronic; duration: 2 years; oral; Dog Other; body weight

O=C(NCc1ncc(C(F)(F)F)cc1Cl)c1c(Cl)cccc1Cl [Fluopicolide]
LD50 ([1]; dermal): > 100 µg/piece
LD50 ([1]; oral, unspecified): > 241 µg/piece
NOEC [2]: 31.2 mg/kg
LC50 ([3]; acute, oral, mortality): > 1740 mg/kg-day
LD50 ([3]; acute, oral, mortality): > 2250 mg/kg-day
NOEC ([3]; reproduction developmental): 88.9 mg/kg-day
LD50 ([4]; oral): > 5000 mg/kg-day
NOAEL ([4]; chronic, duration: 2 years, histopathology: nonneoplastic): 8.4 mg/kg-day
NOAEL ([4]; short-term, duration: 28 days, oral, body weight): 17.7 mg/kg-day
NOAEL ([4]; subchronic, duration: 90 days, oral, organ weight): 7.4 mg/kg-day
LC50 ([5]; acute, duration: 48 hours, mortality): > 1.8 µg/mL
NOEC ([5]; chronic/long-term, duration: 21 days, reproduction): 0.37 mg/L
NOEC [6]: 0.155 mg/L
LC50 [7]: 0.36 µg/mL (≈ 0.939 µM)
NOAEL ([8]; developmental, development): 20 mg/kg-day
NOEL ([8]; developmental, development): 20 mg/kg-day
LC50 ([9]; acute, duration: 14 days, mortality): > 500 mg/kg
NOEC ([9]; chronic/long-term, duration: 28 days, growth): 62.5 mg/kg
NOEC [10]: 49 mg/kg
NOAEL [11]: 7.9 mg/kg-day

CS(=O)c1cc(C(F)(F)F)cnc1C(=O)O (centres undefined)
LD50 ([4]; oral): > 5000 mg/kg-day

O=C(O)c1ncc(C(F)(F)F)cc1S(=O)(=O)O [3-Sulfo-5-trifluoromethyl pyridine-2-carboxylic acid]
LD50 ([4]; oral): > 5000 mg/kg-day

NC(=O)c1c(Cl)cccc1Cl [2,6-Dichlorobenzamide]
NOAEL [12]: 4.5 mg/kg-day
LC50 ([3]; acute, oral, mortality): 1170 mg/kg-day
LD50 ([4]; oral, F): 500 mg/kg-day
LD50 ([4]; oral, M): 2000 mg/kg-day
NOAEL ([4]; chronic, duration: 2 years, oral, histopathology: nonneoplastic): 5.7 mg/kg-day
NOAEL ([8]; reproduction developmental, body weight): 30 mg/kg-day

O=C(O)c1ncc(C(F)(F)F)cc1Cl [3-Chloro-5-(trifluoromethyl)pyridine-2-carboxylic acid]
LD50 ([4]; oral): 5000 mg/kg-day
